Assays:
Experiment in all cases: Test D pre-/postemergence plant response
Type in all cases: in vivo
[1] = test system: barnyardgrass (Echinochloa crus-galli); conditions: Postemergence; for Plant response rating (scale 0 to 100), Barnyardgrass: 16 g ai/ha; for Barnyardgrass plant response rating: 31 g ai/ha, scale 0 to 100 (0 no effect, 100 complete control); for Plant response rating, Barnyardgrass: scale 0 to 100, 0 no effect, 100 complete control
Summary of the method: (§1)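 Two application timings were run together: preemergence onto seeded loam–sand pots, and postemergence onto 1- to 4-leaf plants (2 to 18 cm) in peat/vermiculite medium with starter nutrients. Formulation was a non-phytotoxic solvent with surfactant. Ratings, 0 to 100, were made visually versus controls after 13 to 15 greenhouse days.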

[2] = test system: ragweed (common ragweed, Ambrosia elatior); conditions: Postemergence; for Plant response rating (scale 0 to 100), Ragweed: 16 g ai/ha; for Plant response rating, Ragweed: 125 g ai/ha
Summary of the method: as §1

[3] = test system: galium (catchweed bedstraw, Galium aparine); conditions: Postemergence; for Plant response rating (scale 0 to 100), Galium: 16 g ai/ha; for Galium plant response rating: 31 g ai/ha, scale 0 to 100 (0 no effect, 100 complete control); for Plant response rating, Galium: scale 0 to 100, 0 no effect, 100 complete control
Summary of the method: as §1

[4] = test system: winter wheat (Triticum aestivum); conditions: Postemergence; for Plant response rating (scale 0 to 100), Wheat: 16 g ai/ha; for Plant response rating, Wheat: 125 g ai/ha
Summary of the method: as §1

[5] = test system: johnsongrass (Sorghum halepense); conditions: Postemergence; for Plant response rating (scale 0 to 100), Johnsongrass: 16 g ai/ha; for Johnsongrass plant response rating: 31 g ai/ha, scale 0 to 100 (0 no effect, 100 complete control); for Plant response rating, Johnsongrass: scale 0 to 100, 0 no effect, 100 complete control
Summary of the method: as §1

[6] = test system: large (Lg) crabgrass (Digitaria sanguinalis); conditions: Postemergence; for Plant response rating (scale 0 to 100), Crabgrass, Large: 16 g ai/ha; for Crabgrass, Large plant response rating: 31 g ai/ha, scale 0 to 100 (0 no effect, 100 complete control); for Plant response rating, Crabgrass, Large: scale 0 to 100, 0 no effect, 100 complete control
Summary of the method: as §1

[7] = test system: giant foxtail (Setaria faberii); conditions: Postemergence; for Plant response rating (scale 0 to 100), Foxtail, Giant: 16 g ai/ha; for Foxtail, Giant plant response rating: 31 g ai/ha, scale 0 to 100 (0 no effect, 100 complete control); for Plant response rating, Foxtail, Giant: scale 0 to 100, 0 no effect, 100 complete control
Summary of the method: as §1

[8] = test system: velvetleaf (Abutilon theophrasti); conditions: Postemergence; for Plant response rating (scale 0 to 100), Velvetleaf: 16 g ai/ha; for Plant response rating, Velvetleaf: 125 g ai/ha
Summary of the method: as §1

corn (Zea mays) = conditions: Postemergence; for Plant response rating (scale 0 to 100), Corn: 16 g ai/ha; for Corn plant response rating: 31 g ai/ha, scale 0 to 100 (0 no effect, 100 complete control); for Plant response rating, Corn: scale 0 to 100, 0 no effect, 100 complete control
Summary of the method: as §1

[9] = test system: oilseed rape (Brassica napus); conditions: Postemergence; for Plant response rating (scale 0 to 100), Oilseed Rape: 16 g ai/ha; for Plant response rating, Oilseed Rape: 125 g ai/ha
Summary of the method: as §1

[10] = test system: Italian ryegrass (Lolium multiflorum); conditions: Postemergence; for Plant response rating (scale 0 to 100), Ryegrass, Italian: 16 g ai/ha; for Plant response rating, Ryegrass, Italian: 125 g ai/ha
Summary of the method: as §1

[11] = test system: lambsquarters (Chenopodium album); conditions: Postemergence; for Plant response rating (scale 0 to 100), Lambsquarters: 16 g ai/ha; for Plant response rating, Lambsquarters: 125 g ai/ha
Summary of the method: as §1

[12] = test system: yellow nutsedge (Cyperus esculentus); conditions: Postemergence; for Plant response rating (scale 0 to 100), Nutsedge, Yellow: 16 g ai/ha; for Plant response rating, Nutsedge, Yellow: 125 g ai/ha
Summary of the method: as §1

[13] = test system: morningglory (Ipomoea coccinea); conditions: Postemergence; for Plant response rating (scale 0 to 100), Morningglory: 16 g ai/ha; for Plant response rating, Morningglory: 125 g ai/ha
Summary of the method: as §1

[14] = test system: pigweed (Amaranthus retroflexus); conditions: Postemergence; for Plant response rating (scale 0 to 100), Pigweed: 16 g ai/ha; for Plant response rating, Pigweed: 125 g ai/ha
Summary of the method: as §1

[15] = test system: waterhemp (common waterhemp, Amaranthus rudis); conditions: Postemergence; for Plant response rating (scale 0 to 100), Waterhemp: 16 g ai/ha; for Plant response rating, Waterhemp: 125 g ai/ha
Summary of the method: as §1

soybean (Glycine max) = conditions: Postemergence; for Plant response rating (scale 0 to 100), Soybean: 16 g ai/ha; for Plant response rating, Soybean: 125 g ai/ha
Summary of the method: as §1

[16] = test system: blackgrass (Alopecurus myosuroides); conditions: Postemergence; for Plant response rating (scale 0 to 100), Blackgrass: 16 g ai/ha; for Blackgrass plant response rating: 31 g ai/ha, scale 0 to 100 (0 no effect, 100 complete control); for Plant response rating, Blackgrass: scale 0 to 100, 0 no effect, 100 complete control
Summary of the method: as §1

[17] = 31 g ai/ha, scale 0 to 100 (0 no effect, 100 complete control)
[18] = 62 g ai/ha, scale 0 to 100, 0 no effect, 100 complete control
[19] = scale 0 to 100, 0 no effect, 100 complete control

Fc1ccc(Oc2ncc(Cl)cn2)c(-c2cc(C(F)(Cl)Cl)on2)c1 [Compound 221]
Plant response rating (scale 0 to 100), Barnyardgrass [1]: 0
Barnyardgrass plant response rating [1]: 5
Plant response rating, Barnyardgrass ([1]; 62 g ai/ha): 5
Plant response rating, Barnyardgrass ([1]; 125 g ai/ha): 10
Plant response rating (scale 0 to 100), Ragweed [2]: 35
Ragweed plant response rating [2, 17]: 50
Ragweed plant response rating [2, 18]: 45
Plant response rating, Ragweed [2, 19]: 75
Plant response rating (scale 0 to 100), Galium [3]: 80
Galium plant response rating [3]: 80
Plant response rating, Galium ([3]; 62 g ai/ha): 100
Plant response rating, Galium ([3]; 125 g ai/ha): 100
Plant response rating (scale 0 to 100), Wheat [4]: 0
Wheat plant response rating [4, 17]: 0
Wheat plant response rating [4, 18]: 5
Plant response rating, Wheat [4, 19]: 0
Plant response rating (scale 0 to 100), Johnsongrass [5]: 0
Johnsongrass plant response rating [5]: 5
Plant response rating, Johnsongrass ([5]; 62 g ai/ha): 15
Plant response rating, Johnsongrass ([5]; 125 g ai/ha): 15
Plant response rating (scale 0 to 100), Crabgrass, Large [6]: 10
Crabgrass, Large plant response rating [6]: 10
Plant response rating, Crabgrass, Large ([6]; 62 g ai/ha): 25
Plant response rating, Crabgrass, Large ([6]; 125 g ai/ha): 30
Plant response rating (scale 0 to 100), Foxtail, Giant [7]: 35
Foxtail, Giant plant response rating [7]: 5
Plant response rating, Foxtail, Giant ([7]; 62 g ai/ha): 5
Plant response rating, Foxtail, Giant ([7]; 125 g ai/ha): 35
Plant response rating (scale 0 to 100), Velvetleaf [8]: 70
Velvetleaf plant response rating [8, 17]: 65
Velvetleaf plant response rating [8, 18]: 80
Plant response rating, Velvetleaf [8, 19]: 100
Plant response rating (scale 0 to 100), Corn (corn (Zea mays)): 0
Corn plant response rating (corn (Zea mays)): 0
Plant response rating, Corn (corn (Zea mays); 62 g ai/ha): 5
Plant response rating, Corn (corn (Zea mays); 125 g ai/ha): 10
Plant response rating (scale 0 to 100), Oilseed Rape [9]: 70
Oilseed Rape plant response rating [9, 17]: 70
Oilseed Rape plant response rating [9, 18]: 90
Plant response rating, Oilseed Rape [9, 19]: 90
Plant response rating (scale 0 to 100), Ryegrass, Italian [10]: 5
Ryegrass, Italian plant response rating [10, 17]: 5
Ryegrass, Italian plant response rating [10, 18]: 20
Plant response rating, Ryegrass, Italian [10, 19]: 10
Plant response rating (scale 0 to 100), Lambsquarters [11]: 85
Lambsquarters plant response rating [11, 17]: 95
Lambsquarters plant response rating [11, 18]: 95
Plant response rating, Lambsquarters [11, 19]: 98
Plant response rating (scale 0 to 100), Nutsedge, Yellow [12]: 5
Nutsedge, Yellow plant response rating [12, 17]: 5
Nutsedge, Yellow plant response rating [12, 18]: 5
Plant response rating, Nutsedge, Yellow [12, 19]: 10
Plant response rating (scale 0 to 100), Morningglory [13]: 65
Morningglory plant response rating [13, 17]: 65
Morningglory plant response rating [13, 18]: 80
Plant response rating, Morningglory [13, 19]: 85
Plant response rating (scale 0 to 100), Pigweed [14]: 95
Pigweed plant response rating [14, 17]: 95
Pigweed plant response rating [14, 18]: 98
Plant response rating, Pigweed [14, 19]: 100
Plant response rating (scale 0 to 100), Waterhemp [15]: 70
Waterhemp plant response rating [15, 17]: 85
Waterhemp plant response rating [15, 18]: 100
Plant response rating, Waterhemp [15, 19]: 100
Plant response rating (scale 0 to 100), Soybean (soybean (Glycine max)): 35
Soybean plant response rating (soybean (Glycine max); [17]): 25
Soybean plant response rating (soybean (Glycine max); [18]): 85
Plant response rating, Soybean (soybean (Glycine max); [19]): 90
Plant response rating (scale 0 to 100), Blackgrass [16]: 5
Blackgrass plant response rating [16]: 10
Plant response rating, Blackgrass ([16]; 62 g ai/ha): 5
Plant response rating, Blackgrass ([16]; 125 g ai/ha): 40

FCc1cc(-c2ccccc2Oc2ncc(Cl)cn2)on1 [Compound 224]
Plant response rating (scale 0 to 100), Barnyardgrass [1]: 5
Barnyardgrass plant response rating [1]: 5
Plant response rating, Barnyardgrass ([1]; 62 g ai/ha): 10
Plant response rating, Barnyardgrass ([1]; 125 g ai/ha): 15
Plant response rating (scale 0 to 100), Ragweed [2]: 30
Ragweed plant response rating [2, 17]: 55
Ragweed plant response rating [2, 18]: 55
Plant response rating, Ragweed [2, 19]: 70
Plant response rating (scale 0 to 100), Galium [3]: 40
Galium plant response rating [3]: 50
Plant response rating, Galium ([3]; 62 g ai/ha): 60
Plant response rating, Galium ([3]; 125 g ai/ha): 60
Plant response rating (scale 0 to 100), Wheat [4]: 0
Wheat plant response rating [4, 17]: 0
Wheat plant response rating [4, 18]: 0
Plant response rating, Wheat [4, 19]: 15
Plant response rating (scale 0 to 100), Johnsongrass [5]: 5
Johnsongrass plant response rating [5]: 5
Plant response rating, Johnsongrass ([5]; 62 g ai/ha): 5
Plant response rating, Johnsongrass ([5]; 125 g ai/ha): 5
Plant response rating (scale 0 to 100), Crabgrass, Large [6]: 5
Crabgrass, Large plant response rating [6]: 5
Plant response rating, Crabgrass, Large ([6]; 62 g ai/ha): 10
Plant response rating, Crabgrass, Large ([6]; 125 g ai/ha): 10
Plant response rating (scale 0 to 100), Foxtail, Giant [7]: 0
Foxtail, Giant plant response rating [7]: 5
Plant response rating, Foxtail, Giant ([7]; 62 g ai/ha): 5
Plant response rating, Foxtail, Giant ([7]; 125 g ai/ha): 40
Plant response rating (scale 0 to 100), Velvetleaf [8]: 10
Velvetleaf plant response rating [8, 17]: 25
Velvetleaf plant response rating [8, 18]: 30
Plant response rating, Velvetleaf [8, 19]: 60
Plant response rating (scale 0 to 100), Corn (corn (Zea mays)): 0
Corn plant response rating (corn (Zea mays)): 5
Plant response rating, Corn (corn (Zea mays); 62 g ai/ha): 5
Plant response rating, Corn (corn (Zea mays); 125 g ai/ha): 5
Plant response rating (scale 0 to 100), Oilseed Rape [9]: 0
Oilseed Rape plant response rating [9, 17]: 10
Oilseed Rape plant response rating [9, 18]: 50
Plant response rating, Oilseed Rape [9, 19]: 98
Plant response rating (scale 0 to 100), Ryegrass, Italian [10]: 0
Ryegrass, Italian plant response rating [10, 17]: 0
Ryegrass, Italian plant response rating [10, 18]: 0
Plant response rating, Ryegrass, Italian [10, 19]: 0
Plant response rating (scale 0 to 100), Lambsquarters [11]: 55
Lambsquarters plant response rating [11, 17]: 75
Lambsquarters plant response rating [11, 18]: 80
Plant response rating, Lambsquarters [11, 19]: 85
Plant response rating (scale 0 to 100), Nutsedge, Yellow [12]: 0
Nutsedge, Yellow plant response rating [12, 17]: 0
Nutsedge, Yellow plant response rating [12, 18]: 5
Plant response rating, Nutsedge, Yellow [12, 19]: 5
Plant response rating (scale 0 to 100), Morningglory [13]: 15
Morningglory plant response rating [13, 17]: 35
Morningglory plant response rating [13, 18]: 35
Plant response rating, Morningglory [13, 19]: 80
Plant response rating (scale 0 to 100), Pigweed [14]: 85
Pigweed plant response rating [14, 17]: 85
Pigweed plant response rating [14, 18]: 85
Plant response rating, Pigweed [14, 19]: 90
Plant response rating (scale 0 to 100), Waterhemp [15]: 70
Waterhemp plant response rating [15, 17]: 75
Waterhemp plant response rating [15, 18]: 85
Plant response rating, Waterhemp [15, 19]: 85
Plant response rating (scale 0 to 100), Soybean (soybean (Glycine max)): 35
Soybean plant response rating (soybean (Glycine max); [17]): 40
Soybean plant response rating (soybean (Glycine max); [18]): 65
Plant response rating, Soybean (soybean (Glycine max); [19]): 75
Plant response rating (scale 0 to 100), Blackgrass [16]: 0
Blackgrass plant response rating [16]: 0
Plant response rating, Blackgrass ([16]; 62 g ai/ha): 5
Plant response rating, Blackgrass ([16]; 125 g ai/ha): 0

From patent US10131652B2, “Pyrimidinyloxy benzene derivatives as herbicides” (E. I. DU PONT DE NEMOURS AND COMPANY, priority 2014, dated 2018)
